Tests used:
[1] = test system: Spontaneously hypertensive rats (SHR); assay: Acute efficacy in spontaneously hypertensive rats (SHR): telemetry blood pressure lowering after a single oral dose; assay type: in vivo, rat
Procedure, shortened: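 Values are the maximum peak fall in systolic pressure after one oral dose (mpk), computed hourly against baseline from a vehicle dose given the day before. Rats were conscious, male, spontaneously hypertensive, with femoral-aortic telemetry recording 30 s every 10 min, 14 days post-surgery.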

sGC α1/β1 heterodimer = biological target: T1, sGC α1/β1 heterodimer (Homo sapiens, UniProt Q02108+Q02153); assay: Cell-based sGC functional assay (CASA assay): cGMP generation in CHO-K1/sGC cells, HTRF detection; conditions: for Emax: CHO-K1, percent activation relative to standard Compound A in CHO-K1/sGC cells, read-out: % Act.; for EC50: inflection point (IP) of cGMP generation in CHO-K1/sGC cells, 4P fit, activity expressed as percentage of Compound A
T1 construct: expressed in transfected cells; host or cells: CHO-K1 (clone #7, CHO-K1/sGC)
T1 sequence (Q02108 1-690): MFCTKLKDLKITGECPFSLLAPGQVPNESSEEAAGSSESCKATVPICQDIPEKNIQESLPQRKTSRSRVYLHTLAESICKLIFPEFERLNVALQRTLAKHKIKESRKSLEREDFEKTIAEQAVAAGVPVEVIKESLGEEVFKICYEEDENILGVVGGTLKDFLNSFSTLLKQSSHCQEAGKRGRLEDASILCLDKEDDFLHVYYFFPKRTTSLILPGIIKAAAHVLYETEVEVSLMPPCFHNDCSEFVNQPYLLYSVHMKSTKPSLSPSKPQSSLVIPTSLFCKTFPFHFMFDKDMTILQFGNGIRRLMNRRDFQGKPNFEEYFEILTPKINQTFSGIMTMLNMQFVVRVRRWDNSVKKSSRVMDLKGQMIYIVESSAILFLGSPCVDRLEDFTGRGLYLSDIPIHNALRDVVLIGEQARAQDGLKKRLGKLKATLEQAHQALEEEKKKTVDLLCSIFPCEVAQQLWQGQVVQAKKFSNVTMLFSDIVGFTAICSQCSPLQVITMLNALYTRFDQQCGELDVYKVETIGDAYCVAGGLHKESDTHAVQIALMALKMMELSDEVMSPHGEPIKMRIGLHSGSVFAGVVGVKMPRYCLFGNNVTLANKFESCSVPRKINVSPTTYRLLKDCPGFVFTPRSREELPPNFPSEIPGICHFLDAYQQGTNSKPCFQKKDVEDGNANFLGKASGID
T1 sequence (Q02153 1-619): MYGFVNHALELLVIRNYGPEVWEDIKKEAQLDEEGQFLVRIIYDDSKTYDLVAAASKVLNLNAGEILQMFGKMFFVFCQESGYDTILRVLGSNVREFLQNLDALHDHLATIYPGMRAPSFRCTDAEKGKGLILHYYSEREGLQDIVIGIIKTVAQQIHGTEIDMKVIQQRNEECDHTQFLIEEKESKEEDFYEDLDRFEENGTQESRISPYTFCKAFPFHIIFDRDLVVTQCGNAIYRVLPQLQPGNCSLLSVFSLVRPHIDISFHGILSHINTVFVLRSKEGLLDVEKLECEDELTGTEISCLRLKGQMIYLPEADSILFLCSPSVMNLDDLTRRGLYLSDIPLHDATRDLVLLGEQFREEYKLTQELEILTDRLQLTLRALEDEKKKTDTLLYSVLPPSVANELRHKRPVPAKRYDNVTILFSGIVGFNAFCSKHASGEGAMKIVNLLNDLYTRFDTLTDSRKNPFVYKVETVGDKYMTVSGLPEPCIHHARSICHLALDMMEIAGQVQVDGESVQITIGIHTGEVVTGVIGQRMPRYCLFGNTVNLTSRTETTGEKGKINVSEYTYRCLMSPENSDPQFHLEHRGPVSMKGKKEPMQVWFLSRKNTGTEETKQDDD
Procedure, shortened: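 cGMP was quantified by HTRF after 1 hr, 37° C exposure of thawed CHO-K1 cells expressing sGC α1/β1 to compound, with or without 1 μM DETA-NO. IBMX (0.5 mM) blocked cGMP breakdown, and DMSO was 2.5% final. Percent of standard Compound A's maximal cGMP was fitted (4P) for inflection point.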

SMILES | Maximum peak decrease of systolic blood pressure (SBP) in SHR, Cat. ([1]; P.O. 0.1 mpk) | Emax (sGC α1/β1 heterodimer) [%] | EC50 (sGC α1/β1 heterodimer) [nM] | Maximum peak decrease of systolic blood pressure (SBP) in SHR, Cat. ([1]; P.O. 2.0 mpk) | Maximum peak decrease of systolic blood pressure (SBP) in SHR, Cat. ([1]; P.O. 1.0 mpk) | Maximum peak decrease of systolic blood pressure (SBP) in SHR, Cat. ([1]; P.O. 3.0 mpk) | Maximum peak decrease of systolic blood pressure (SBP) in SHR, Cat. ([1]; P.O. 0.3 mpk)
Nc1nc(-c2cn3ccnc3c(CCCC(F)(F)F)n2)nc2c1C(c1ccc(F)c(F)c1)(C1CC1)C(=O)N2 (stereo not drawn) [Example 317A, 4-amino-5-cyclopropyl-5-(3,4-difluorophenyl)-2-(8-(4,4,4-trifluorobutyl)imidazo[1,2-a]pyrazin-6-yl)-5H-pyrrolo[2,3-d]pyrimidin-6(7H)-one] | B (Category B=SBP in SHRs 20-40 mmHg) | 156 | 75 | – | – | – | –
Nc1nc(-c2cn3ccnc3c(CCC(F)(F)F)n2)nc2c1C(c1ccc(F)c(F)c1)(C1CC1)C(=O)N2 (stereo not drawn) [Example 318A, 4-amino-5-cyclopropyl-5-(3,4-difluorophenyl)-2-(8-(3,3,3-trifluoropropyl)imidazo[1,2-a]pyrazin-6-yl)-5H-pyrrolo[2,3-d]pyrimidin-6(7H)-one] | – | 127 | 2180 | A (Category A=SBP in SHRs<20 mmHg) | – | – | –
CCCc1nc(-c2nc(N)c3c(n2)NC(=O)C3(c2ccc(Cl)c(F)c2)C2CC2)cn2ccnc12 (stereo not drawn) [Example 327A, 4-amino-5-(4-chloro-3-fluorophenyl)-5-cyclopropyl-2-(8-propylimidazo[1,2-a]pyrazin-6-yl)-5H-pyrrolo[2,3-d]pyrimidin-6(7H)-one] | – | 112 | 134 | – | A (Category A=SBP in SHRs<20 mmHg) | – | –
Nc1nc(-c2cn3ccnc3c(CCC(F)(F)F)n2)nc2c1C(c1ccc(OC(F)(F)F)cc1)(C1CC1)C(=O)N2 (stereo not drawn) [Example 328A, 4-amino-5-cyclopropyl-5-(4-(trifluoromethoxy)phenyl)-2-(8-(3,3,3-trifluoropropyl)imidazo[1,2-a]pyrazin-6-yl)-5H-pyrrolo[2,3-d]pyrimidin-6(7H)-one] | – | 106 | 1040 | – | – | A (Category A=SBP in SHRs<20 mmHg) | –
CCCCc1nc(-c2nc(N)c3c(n2)NC(=O)C3(c2ccc(Cl)c(F)c2)C2CC2)cn2ccnc12 (stereo not drawn) [Example 329A, 4-amino-2-(8-butylimidazo[1,2-a]pyrazin-6-yl)-5-(4-chloro-3-fluorophenyl)-5-cyclopropyl-5H-pyrrolo[2,3-d]pyrimidin-6(7H)-one] | – | 93 | 16 | – | – | – | B (Category B=SBP in SHRs 20-40 mmHg)
CCCCc1nc(-c2nc(N)c3c(n2)NC(=O)C3(c2ccc(F)c(F)c2)C2CC2)cn2ccnc12 (stereo not drawn) [Example 330A, 4-amino-2-(8-butylimidazo[1,2-a]pyrazin-6-yl)-5-cyclopropyl-5-(3,4-difluorophenyl)-5H-pyrrolo[2,3-d]pyrimidin-6(7H)-one] | – | 142 | 22 | – | – | – | B (Category B=SBP in SHRs 20-40 mmHg)
CCCCc1nc(-c2nc(N)c3c(n2)NC(=O)C3(c2ccc(Cl)cc2)C2CC2)cn2ccnc12 (stereo not drawn) [Example 332B, 4-amino-2-(8-butylimidazo[1,2-a]pyrazin-6-yl)-5-(4-chlorophenyl)-5-cyclopropyl-5H-pyrrolo[2,3-d]pyrimidin-6(7H)-one] | – | 141 | 30 | – | – | – | B (Category B=SBP in SHRs 20-40 mmHg)
CCCc1nc(-c2nc(N)c3c(n2)NC(=O)C3(c2ccc(F)c(F)c2)C2CC2)cn2ccnc12 (stereo not drawn) [Example 334A, 4-amino-5-cyclopropyl-5-(3,4-difluorophenyl)-2-(8-propylimidazo[1,2-a]pyrazin-6-yl)-5H-pyrrolo[2,3-d]pyrimidin-6(7H)-one] | – | 111 | 278 | – | – | A (Category A=SBP in SHRs<20 mmHg) | –
CC(C)Cc1nc(-c2nc(N)c3c(n2)NC(=O)C3(c2ccc(F)c(F)c2)C2CC2)cn2ccnc12 (stereo not drawn) [Example 335A, 4-amino-5-cyclopropyl-5-(3,4-difluorophenyl)-2-(8-isobutylimidazo[1,2-a]pyrazin-6-yl)-5H-pyrrolo[2,3-d]pyrimidin-6(7H)-one] | – | 140 | 303 | – | – | B (Category B=SBP in SHRs 20-40 mmHg) | –
CCCCc1nc(-c2nc(N)c3c(n2)NC(=O)C3(c2ccc(Cl)cn2)C2CC2)cn2ccnc12 (stereo not drawn) [Example 336B, 4-amino-2-(8-butylimidazo[1,2-a]pyrazin-6-yl)-5-(5-chloropyridin-2-yl)-5-cyclopropyl-5H-pyrrolo[2,3-d]pyrimidin-6(7H)-one] | – | 131 | 22 | – | – | – | B (Category B=SBP in SHRs 20-40 mmHg)
Nc1nc(-c2cn3ccnc3c(CCC(F)(F)F)n2)nc2c1C(c1ccc(Cl)cc1F)(C1CC1)C(=O)N2 (stereo not drawn) [Example 338A, 4-amino-5-(4-chloro-2-fluorophenyl)-5-cyclopropyl-2-(8-(3,3,3-trifluoropropyl)imidazo[1,2-a]pyrazin-6-yl)-5H-pyrrolo[2,3-d]pyrimidin-6(7H)-one] | – | 158 | 178 | B (Category B=SBP in SHRs 20-40 mmHg) | – | – | –
Nc1nc(-c2cn3ccnc3c(CCCC(F)(F)F)n2)nc2c1C(c1ccc(Cl)cc1F)(C1CC1)C(=O)N2 (stereo not drawn) [Example 339A, 4-amino-5-(4-chloro-2-fluorophenyl)-5-cyclopropyl-2-(8-(4,4,4-trifluorobutyl)imidazo[1,2-a]pyrazin-6-yl)-5H-pyrrolo[2,3-d]pyrimidin-6(7H)-one] | – | 325 | 122 | – | – | – | B (Category B=SBP in SHRs 20-40 mmHg)
CCCCc1nc(-c2nc(N)c3c(n2)NC(=O)C3(c2ccc(OC(F)(F)F)cc2)C2CC2)cn2ccnc12 (stereo not drawn) [Example 346A] | – | 132 | 65 | – | B (Category B=SBP in SHRs 20-40 mmHg) | – | –
Nc1nc(-c2cn3ccnc3c(CCCC(F)(F)F)n2)nc2c1C(c1ccc(OC(F)(F)F)cc1)(C1CC1)C(=O)N2 (stereo not drawn) [Example 347A, 4-amino-5-cyclopropyl-2-(8-(4,4,4-trifluorobutyl)imidazo[1,2-a]pyrazin-6-yl)-5-(4-(trifluoromethoxy)phenyl)-5H-pyrrolo[2,3-d]pyrimidin-6(7H)-one] | – | 107 | 131 | – | B (Category B=SBP in SHRs 20-40 mmHg) | – | –
Nc1nc(-c2cn3ccnc3c(CCC(F)(F)C(F)(F)F)n2)nc2c1C(c1ncc(Cl)cn1)(C1CC1)C(=O)N2 (stereo not drawn) [Example 349A, 4-amino-5-(5-chloropyrimidin-2-yl)-5-cyclopropyl-2-(8-(3,3,4,4,4-pentafluorobutyl)imidazo[1,2-a]pyrazin-6-yl)-5H-pyrrolo[2,3-d]pyrimidin-6(7H)-one] | – | 107 | 213 | B (Category B=SBP in SHRs 20-40 mmHg) | – | – | –
Nc1nc(-c2cn3ccnc3c(CCC(F)(F)C(F)(F)F)n2)nc2c1C(c1cncc(F)c1)(C1CC1)C(=O)N2 (stereo not drawn) [Example 353B, 4-amino-5-cyclopropyl-5-(5-fluoropyridin-3-yl)-2-(8-(3,3,4,4,4-pentafluorobutyl)imidazo[1,2-a]pyrazin-6-yl)-5H-pyrrolo[2,3-d]pyrimidin-6(7H)-one] | – | 168 | 1030 | – | – | A (Category A=SBP in SHRs<20 mmHg) | –
